One assay concerns the target T1, hAMY3 receptor (Homo sapiens, UniProt O60896+P30988).
T1 sequence (P30988 25-474): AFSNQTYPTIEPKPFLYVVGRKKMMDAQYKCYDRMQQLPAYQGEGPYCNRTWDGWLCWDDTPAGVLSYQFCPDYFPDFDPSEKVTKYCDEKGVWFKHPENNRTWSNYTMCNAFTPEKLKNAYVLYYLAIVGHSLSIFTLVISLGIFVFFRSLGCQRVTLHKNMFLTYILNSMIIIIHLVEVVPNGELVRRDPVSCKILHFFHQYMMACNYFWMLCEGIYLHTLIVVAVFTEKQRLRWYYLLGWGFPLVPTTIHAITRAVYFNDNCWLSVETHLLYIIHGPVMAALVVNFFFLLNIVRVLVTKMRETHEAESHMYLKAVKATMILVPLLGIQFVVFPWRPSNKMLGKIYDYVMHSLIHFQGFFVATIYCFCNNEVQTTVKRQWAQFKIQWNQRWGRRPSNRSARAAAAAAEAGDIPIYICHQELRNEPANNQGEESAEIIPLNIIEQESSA
T1 sequence (O60896 24-148 partner): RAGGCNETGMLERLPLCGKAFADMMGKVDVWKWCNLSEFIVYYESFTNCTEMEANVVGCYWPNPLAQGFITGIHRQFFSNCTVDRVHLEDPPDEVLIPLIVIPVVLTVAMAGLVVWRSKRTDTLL
Kind of assay: cAMP assay for in vitro receptor activation, hAMY3-R. It counts as cell-based. To be noted: cAMP assay, hAMY3 receptor; read-out: hAMY3R EC50. The gist of the method:
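Graded compound concentrations were applied for 30 min at room temperature to stably hAMY3-expressing cells in DPBS, 0.05% casein, 0.5 mM IBMX; cAMP detected by TR-FRET.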

A further assay has as its target hAM1 receptor (Homo sapiens, UniProt O60895+Q16602). In words: cAMP assay for in vitro receptor activation, hAM1-R. The assay is classed as cell-based. The settings on record: cAMP assay, hAM1 receptor; read-out: hAM1R EC50. The gist of the method: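 Stable hAM1 cells (monoclonal) plated 8000/well; buffer DPBS, 0.05% casein, 0.5 mM IBMX; cAMP read-out.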

Among the data in patent publication US12139520B2 (priority 2020, dated 2024) are EC50 values, retold here.

The structures appear in SMILES notation. Numbered stars: 1 amine (or outer) side, 2 acyl side, 3 side chain; on linkers, the order of the positions; unused ones are H or OH. Bridge positions count the residues as written; N and C are the ends. Square brackets hold non-standard residues; d marks the D form. Peptide text beside a SMILES is read from it. * marks the point of attachment. C20 diacid = O=C(O)CCCCCCCCCCCCCCCCCCC(=O)*; γGlu = O=C(O)[C@H](CCC(=O)[*:2])N[*:1]; Hyp = O=C(O)[C@@H]1C[C@@H](O)CN1; Trx = NC[C@H]1CC[C@H](C(=O)O)CC1; AEEA = NCCOCCOCC(=O)O

Sequence of hAM1 receptor (Q16602 23-461): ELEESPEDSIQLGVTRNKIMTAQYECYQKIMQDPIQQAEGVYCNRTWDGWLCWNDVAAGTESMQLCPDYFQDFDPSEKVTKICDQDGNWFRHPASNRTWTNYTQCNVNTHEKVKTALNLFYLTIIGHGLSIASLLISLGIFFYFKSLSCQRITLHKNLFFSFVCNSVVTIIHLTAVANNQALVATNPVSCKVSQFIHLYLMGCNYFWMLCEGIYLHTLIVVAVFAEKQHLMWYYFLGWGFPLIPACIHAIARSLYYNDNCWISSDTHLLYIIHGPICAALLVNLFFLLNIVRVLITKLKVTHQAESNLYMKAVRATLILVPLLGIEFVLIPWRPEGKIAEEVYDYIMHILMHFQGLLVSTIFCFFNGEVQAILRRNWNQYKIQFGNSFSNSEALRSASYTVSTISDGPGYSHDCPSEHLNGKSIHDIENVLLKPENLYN
Sequence of hAM1 receptor (O60895 43-175 partner): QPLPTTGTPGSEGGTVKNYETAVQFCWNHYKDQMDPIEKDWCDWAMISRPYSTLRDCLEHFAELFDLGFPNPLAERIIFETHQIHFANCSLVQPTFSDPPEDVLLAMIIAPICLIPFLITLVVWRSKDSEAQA

On to `CC[C@H](C)[C@H](NC(=O)[C@H](CCC(N)=O)NC(=O)[C@H](Cc1c[nH]cn1)NC(=O)[C@H](C)NC(=O)[C@H](CC(C)C)NC(=O)[C@H](CCCNC(=N)N)NC(=O)[C@H](CCC(N)=O)NC(=O)[C@@H](NC(=O)[C@@H](NC(=O)[C@@H]1CSSC[C@H](NC(=O)[C@H](CCCCN)NC(=O)CC[C@H](NC(=O)CCCCCCCCCCCCCCCCCCC(=O)O)C(=O)O)C(=O)N[C@@H](CC(N)=O)C(=O)N[C@@H]([C@@H](C)O)C(=O)N[C@@H](C)C(=O)N[C@@H]([C@@H](C)O)C(=O)N1)[C@@H](C)O)C(C)C)C(=O)N[C@@H](C)C(=O)N[C@@H](CCC(N)=O)C(=O)N[C@@H](Cc1ccccc1)C(=O)N[C@H](C(=O)N[C@@H](CC(=O)O)C(=O)N[C@@H](CCCCN)C(=O)N[C@@H](CC(=O)O)C(=O)N[C@@H](CCCCN)C(=O)N[C@@H](CC(=O)O)C(=O)N1CCC[C@H]1C(=O)N[C@H](C(=O)N[C@@H](C)C(=O)N1CCC[C@H]1C(=O)N1CCC[C@H]1C(=O)N[C@H](C(=O)N[C@@H](CC(N)=O)C(=O)N[C@H](C(=O)NCC(=O)N[C@@H](CO)C(=O)N[C@@H](CC(N)=O)C(=O)N[C@@H](CO)C(=O)N1C[C@H](O)C[C@H]1C(N)=O)C(C)C)[C@@H](C)O)C(C)C)[C@@H](C)O` [compound 120] ({C20 diacid-γGlu}-KCNTATCTVQRLAHQIAQFTDKDKDPVAPPTNVGSNS[Hyp]-NH2; disulfide 2-7), for which the EC50 (as a rule, the concentration that produces a half-maximal response) at hAMY3 receptor was 0.025 nM; at hAM1 receptor, greater than 5000 nM.
On to `CC[C@H](C)[C@H](NC(=O)[C@H](CCC(N)=O)NC(=O)[C@H](CCC(=O)O)NC(=O)[C@H](C)NC(=O)[C@H](CC(C)C)NC(=O)[C@H](CCCNC(=N)N)NC(=O)[C@H](CCC(N)=O)NC(=O)[C@@H](NC(=O)[C@@H](NC(=O)[C@@H]1CSSC[C@H](NC(=O)[C@H](CCCCN)NC(=O)CC[C@H](NC(=O)CCCCCCCCCCCCCCCCCCC(=O)O)C(=O)O)C(=O)N[C@@H](CC(N)=O)C(=O)N[C@@H]([C@@H](C)O)C(=O)N[C@@H](C)C(=O)N[C@@H]([C@@H](C)O)C(=O)N1)[C@@H](C)O)C(C)C)C(=O)N[C@@H](Cc1ccc(O)cc1)C(=O)N[C@@H](CCC(N)=O)C(=O)N[C@@H](Cc1ccccc1)C(=O)N[C@H](C(=O)N[C@@H](CC(=O)O)C(=O)N[C@@H](CCCCN)C(=O)N[C@@H](C)C(=O)N[C@@H](CCCCN)C(=O)N[C@@H](CC(=O)O)C(=O)N[C@@H](CC(N)=O)C(=O)N[C@H](C(=O)N[C@@H](C)C(=O)N1CCC[C@H]1C(=O)N1CCC[C@H]1C(=O)N[C@H](C(=O)N[C@@H](CC(N)=O)C(=O)N[C@H](C(=O)NCC(=O)N[C@@H](CO)C(=O)N[C@@H](CC(N)=O)C(=O)NCC(=O)N1C[C@H](O)C[C@H]1C(N)=O)C(C)C)[C@@H](C)O)C(C)C)[C@@H](C)O` [compound 122] ({C20 diacid-γGlu}-KCNTATCTVQRLAEQIYQFTDKAKDNVAPPTNVGSNG[Hyp]-NH2; disulfide 2-7), for which the EC50 on hAMY3 receptor is 0.026 nM; at hAM1 receptor it was greater than 5000 nM.
Regarding `CC[C@H](C)[C@H](NC(=O)[C@H](CCC(N)=O)NC(=O)[C@H](CCC(=O)O)NC(=O)[C@H](C)NC(=O)[C@H](CC(C)C)NC(=O)[C@H](CCCNC(=N)N)NC(=O)[C@H](CCC(N)=O)NC(=O)[C@@H](NC(=O)[C@@H](NC(=O)[C@@H]1CSSC[C@H](NC(=O)[C@H](CCCCN)NC(=O)COCCOCCNC(=O)COCCOCCNC(=O)CC[C@H](NC(=O)[C@H]2CC[C@H](CNC(=O)CCCCCCCCCCCCCCCCCCC(=O)O)CC2)C(=O)O)C(=O)N[C@@H](CC(N)=O)C(=O)N[C@@H]([C@@H](C)O)C(=O)N[C@@H](C)C(=O)N[C@@H]([C@@H](C)O)C(=O)N1)[C@@H](C)O)C(C)C)C(=O)N[C@@H](Cc1ccc(O)cc1)C(=O)N[C@@H](CCC(N)=O)C(=O)N[C@@H](Cc1ccccc1)C(=O)N[C@H](C(=O)N[C@@H](CC(=O)O)C(=O)N[C@@H](CCCCN)C(=O)N[C@@H](CC(=O)O)C(=O)N[C@@H](CCCCN)C(=O)N[C@@H](CC(=O)O)C(=O)N[C@@H](CC(N)=O)C(=O)N[C@H](C(=O)N[C@@H](C)C(=O)N1CCC[C@H]1C(=O)N1CCC[C@H]1C(=O)N[C@H](C(=O)N[C@@H](CC(N)=O)C(=O)N[C@H](C(=O)NCC(=O)N[C@@H](CO)C(=O)N[C@@H](CC(N)=O)C(=O)NCC(=O)N1C[C@H](O)C[C@H]1C(N)=O)C(C)C)[C@@H](C)O)C(C)C)[C@@H](C)O` [compound 126] ({C20 diacid-Trx-γGlu-AEEA-AEEA}-KCNTATCTVQRLAEQIYQFTDKDKDNVAPPTNVGSNG[Hyp]-NH2; disulfide 2-7), the values for the EC50 at hAMY3 receptor and on hAM1 receptor were 0.027 nM and greater than 5000 nM, respectively.
Take `CC[C@H](C)[C@H](NC(=O)[C@H](CCCCN)NC(=O)[C@H](CO)NC(=O)[C@H](CCCNC(=N)N)NC(=O)[C@@H]1CCCN1C(=O)[C@H](C)NC(=O)[C@@H](NC(=O)[C@H](CC(N)=O)NC(=O)[C@H](CC(=O)O)NC(=O)[C@H](CCCCN)NC(=O)[C@H](CC(=O)O)NC(=O)[C@H](CCCCN)NC(=O)[C@H](CC(=O)O)NC(=O)[C@@H](NC(=O)[C@H](Cc1ccccc1)NC(=O)[C@H](CCC(N)=O)NC(=O)[C@H](Cc1ccc(O)cc1)NC(=O)[C@@H](NC(=O)[C@H](CCC(N)=O)NC(=O)[C@H](Cc1c[nH]cn1)NC(=O)[C@H](C)NC(=O)[C@H](CC(C)C)NC(=O)[C@H](CCCNC(=N)N)NC(=O)[C@H](CCC(N)=O)NC(=O)[C@@H](NC(=O)[C@@H](NC(=O)[C@@H]1CSSC[C@H](NC(=O)CN)C(=O)N[C@@H](CCCNC(=N)N)C(=O)N[C@@H](Cc2ccccc2)C(=O)NCC(=O)N[C@@H]([C@@H](C)O)C(=O)N1)[C@@H](C)O)C(C)C)[C@@H](C)CC)[C@@H](C)O)C(C)C)C(=O)NCC(=O)N1CCC[C@H]1C(=O)N[C@@H](CCC(N)=O)C(=O)NCC(=O)N1C[C@H](O)C[C@H]1C(N)=O` [compound 127] (H-GCRFGTCTVQRLAHQIYQFTDKDKDNVAPRSKIGPQG[Hyp]-NH2; disulfide 2-7; N-terminus assumed): the figures for the EC50 at hAMY3 receptor and on hAM1 receptor were 0.028 nM and 107 nM, respectively.
With `CC[C@H](C)[C@H](NC(=O)[C@H](C)NC(=O)CNC(=O)[C@H](Cc1ccccc1)NC(=O)[C@H](CC(N)=O)NC(=O)[C@H](CC(N)=O)NC(=O)[C@H](CO)NC(=O)[C@H](CO)NC(=O)[C@H](Cc1c[nH]cn1)NC(=O)[C@@H](NC(=O)[C@H](CC(C)C)NC(=O)[C@H](Cc1ccccc1)NC(=O)[C@H](CC(N)=O)NC(=O)[C@H](C)NC(=O)[C@H](CC(C)C)NC(=O)[C@H](CCCNC(=N)N)NC(=O)[C@H](CCC(N)=O)NC(=O)[C@@H](NC(=O)[C@H](C)NC(=O)[C@@H]1CSSC[C@H](NC(=O)[C@@H](N)CCCCN)C(=O)N[C@@H](CC(N)=O)C(=O)N[C@@H]([C@@H](C)O)C(=O)N[C@@H](C)C(=O)N[C@@H]([C@@H](C)O)C(=O)N1)[C@@H](C)O)C(C)C)C(=O)N[C@@H](C)C(=O)N1CCC[C@H]1C(=O)N[C@@H](CO)C(=O)N[C@H](C(=O)N[C@@H](CCCCN)C(=O)N[C@H](C(=O)NCC(=O)N1CCC[C@H]1C(=O)N[C@@H](CC(N)=O)C(=O)NCC(=O)N[C@@H](Cc1ccc(O)cc1)C(N)=O)[C@@H](C)CC)[C@@H](C)O` [compound 128] (H-KCNTATCATQRLANFLVHSSNNFGAIAPSTKIGPNGY-NH2; disulfide 2-7; N-terminus assumed), the EC50 on hAMY3 receptor was found to be 0.028 nM; on hAM1 receptor, 130 nM.
In the case of `CC[C@H](C)[C@H](NC(=O)[C@H](CCC(N)=O)NC(=O)[C@H](Cc1c[nH]cn1)NC(=O)[C@H](C)NC(=O)[C@H](CC(C)C)NC(=O)[C@H](CCCNC(=N)N)NC(=O)[C@H](CC(=O)O)NC(=O)[C@@H](NC(=O)[C@@H](NC(=O)[C@@H]1CSSC[C@H](NC(=O)[C@H](CCCCN)NC(=O)CC[C@H](NC(=O)CCCCCCCCCCCCCCCCCCC(=O)O)C(=O)O)C(=O)N[C@@H](CC(N)=O)C(=O)N[C@@H]([C@@H](C)O)C(=O)N[C@@H](C)C(=O)N[C@@H]([C@@H](C)O)C(=O)N1)[C@@H](C)O)C(C)C)C(=O)N[C@@H](C)C(=O)N[C@@H](CCC(N)=O)C(=O)N[C@@H](Cc1ccccc1)C(=O)N[C@H](C(=O)N[C@@H](CC(=O)O)C(=O)N[C@@H](CCCCN)C(=O)N[C@@H](CC(=O)O)C(=O)N[C@@H](CCCCN)C(=O)N[C@@H](CC(=O)O)C(=O)N1CCC[C@H]1C(=O)N[C@H](C(=O)N[C@@H](C)C(=O)N1CCC[C@H]1C(=O)N1CCC[C@H]1C(=O)N[C@H](C(=O)N[C@@H](CC(N)=O)C(=O)N[C@H](C(=O)NCC(=O)N[C@@H](CO)C(=O)N[C@@H](CC(N)=O)C(=O)NCC(=O)N1C[C@H](O)C[C@H]1C(N)=O)C(C)C)[C@@H](C)O)C(C)C)[C@@H](C)O` [compound 130] ({C20 diacid-γGlu}-KCNTATCTVDRLAHQIAQFTDKDKDPVAPPTNVGSNG[Hyp]-NH2; disulfide 2-7), the EC50 on hAMY3 receptor is 0.03 nM; on hAM1 receptor, greater than 5000 nM.
